{"source": "patent US20240350493A1", "about": "(Kadmon Corporation, LLC, priority 2022, published 2024)", "key": {"[1]": {"assay": "relative bioavailability/food effect study, tablet and capsule (KD025-106)", "format": "in vivo, human", "details": "for AUC(0-t) / AUC(0-inf) / Cmax / Tmax / half-life: male, human, plasma, oral, 200 mg", "description": "Both studies were single-center, open-label, randomized, single dose crossover studies in healthy males.\nIn the second, relative bioavailability/food effect study, both the marketed tablets and earlier formulation capsules were investigated.\nFor Treatments B and C, before dosing, subjects consumed a high-fat breakfast consisting of a hash brown, bacon, fried egg, white bread, and 240 mL of full fat milk over 25 minutes. […] All subjects were to receive each treatment, with at least a 6-day washout between each period. Water was permitted ad libitum in all study periods, besides for 1 hour pre-and post-dose.\nIn both studies, serial blood samples for PK analysis were collected at pre-dose and 1, 2, 4, 6, 8, 12, 16, 24, and 36 hours post-dose. An additional sample at 30 hours post-dose was collected in the first study; additional samples were collected 3, 5, and 48 hours post-dose in the second study. Blood samples (5-6 mL per sample) were collected in K3EDTA tubes on ice and were processed within 30 minutes of collection, then frozen at approximately-70 to −80° C. shortly after collection.\nSample preparation was performed by protein precipitation.\nStatistical analyses were performed in SAS using the PROC MIXED procedure and the Restricted Maximum Likelihood estimation method. In both studies, the presence of a food effect was evaluated by a formal statistical analysis on natural log-transformed AUC and Cmax using mixed effect modeling techniques. The model included treatment, period, and sequence as fixed effects and subject nested within sequence as a random effect. Adjusted geometric mean ratios (GMRs) and their 90% confidence intervals (CIs) were calculated for fed (test) versus fasted (reference) treatments. The absence of a food effect was to be concluded if the 90% CI was within the bioequivalence limits of 80.00 to 125.00%.\nTo assess relative bioavailability between formulations in the second study, the same analysis was performed for tablets (test) versus capsules (reference), both in the fed state. For both studies, all subjects who received at least one dose of study drug and had post-dose PK data available were included in the PK population"}, "[2]": {"target": "BCRP (Homo sapiens, UniProt Q9UNQ0)", "sequence (Q9UNQ0 whole entry)": "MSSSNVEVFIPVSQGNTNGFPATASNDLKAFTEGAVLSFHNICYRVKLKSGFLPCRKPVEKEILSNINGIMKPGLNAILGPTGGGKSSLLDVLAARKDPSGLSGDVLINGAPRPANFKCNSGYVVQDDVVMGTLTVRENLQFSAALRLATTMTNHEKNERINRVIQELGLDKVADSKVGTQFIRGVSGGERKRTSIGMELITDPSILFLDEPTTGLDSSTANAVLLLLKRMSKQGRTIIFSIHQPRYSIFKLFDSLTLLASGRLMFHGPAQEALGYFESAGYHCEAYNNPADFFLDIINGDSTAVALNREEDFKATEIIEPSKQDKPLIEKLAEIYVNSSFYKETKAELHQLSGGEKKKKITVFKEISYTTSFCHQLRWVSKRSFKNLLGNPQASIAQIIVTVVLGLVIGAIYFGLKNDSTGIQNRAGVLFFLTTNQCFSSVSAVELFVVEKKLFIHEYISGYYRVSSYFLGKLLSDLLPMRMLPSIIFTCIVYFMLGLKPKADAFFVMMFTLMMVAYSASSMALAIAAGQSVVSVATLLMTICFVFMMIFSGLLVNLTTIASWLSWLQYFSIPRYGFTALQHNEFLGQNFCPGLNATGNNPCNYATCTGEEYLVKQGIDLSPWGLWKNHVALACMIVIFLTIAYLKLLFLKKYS", "assay": "transporter inhibition, in vitro", "format": "in vitro ADME", "details": "at clinically relevant concentrations"}, "[3]": {"target": "T1, CYP2D6 (Homo sapiens, UniProt P10635)", "T1 sequence (P10635 whole entry)": "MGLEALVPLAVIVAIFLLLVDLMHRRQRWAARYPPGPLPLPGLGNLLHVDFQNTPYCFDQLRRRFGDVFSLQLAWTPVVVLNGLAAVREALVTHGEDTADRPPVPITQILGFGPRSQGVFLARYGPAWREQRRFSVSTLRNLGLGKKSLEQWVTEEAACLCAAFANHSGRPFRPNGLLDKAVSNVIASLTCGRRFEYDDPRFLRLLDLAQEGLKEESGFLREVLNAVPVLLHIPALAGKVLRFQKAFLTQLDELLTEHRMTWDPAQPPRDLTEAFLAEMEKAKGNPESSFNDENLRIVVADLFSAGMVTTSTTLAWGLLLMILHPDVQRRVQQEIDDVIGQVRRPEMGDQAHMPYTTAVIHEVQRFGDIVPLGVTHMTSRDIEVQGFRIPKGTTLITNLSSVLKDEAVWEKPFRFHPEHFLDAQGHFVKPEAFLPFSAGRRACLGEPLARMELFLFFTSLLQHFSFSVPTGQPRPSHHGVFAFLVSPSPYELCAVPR", "assay": "enzyme inhibition, in vitro", "format": "in vitro ADME"}, "[4]": {"target": "T1, CYP2D6", "assay": "incubations with recombinant enzymes", "format": "in vitro ADME"}, "[5]": {"tested_on": "dogs", "assay": "general toxicology studies, dogs", "format": "in vivo, dog"}, "[6]": {"details": "200 mg tablet, high-fat breakfast"}}, "note": "Read-outs that look alike come from different tables or passages of the source."}
{"smiles": "CC(C)NC(=O)COc1cccc(-c2nc(Nc3ccc4[nH]ncc4c3)c3ccccc3n2)c1", "note": "[Belumosudil, 2-{3-[4-(1H-indazol-5-ylamino)-2-quinazolinyl]phenoxy}-N-(propan-2-yl) acetamide]", "values": [{"measurement": "reduction of inter-subject variability in exposure with food", "setting": "[1]; 200 mg tablet", "result": "approximately 60%"}, {"measurement": "AUC% extrap, arithmetic mean (SD)", "setting": "[1]; 200 mg tablet, fasted", "result": "8.38 (9.05) %"}, {"measurement": "AUC% extrap, geometric mean (geometric CV %)", "setting": "[1]; 200 mg tablet, fasted", "result": "6.02 (90.8); %"}, {"measurement": "AUC% extrap, arithmetic mean (SD)", "setting": "[1]; 200 mg tablet, fed", "result": "1.71 (0.71) %"}, {"measurement": "AUC% extrap, geometric mean (geometric CV %)", "setting": "[1]; 200 mg tablet, fed", "result": "1.55 (50.3); %"}, {"measurement": "AUCinf fed as % of fasted", "setting": "[1]; [6]", "result": 180, "unit": "%"}, {"measurement": "Cmax fed as % of fasted", "setting": "[1]; [6]", "result": 225, "unit": "%"}, {"measurement": "AUC(0-t)", "setting": "[1]; 200 mg tablet, fasted, read-out: AUC0-24, arithmetic mean (SD)", "result": 5400, "unit": "ng·h/mL"}, {"measurement": "AUC(0-t)", "setting": "[1]; 200 mg tablet, fasted, read-out: AUC0-24, geometric mean (geometric CV %)", "result": 4250, "unit": "ng·h/mL"}, {"measurement": "AUC(0-inf)", "setting": "[1]; 200 mg tablet, fasted, read-out: AUCinf, arithmetic mean (SD)", "result": 6670, "unit": "ng·h/mL"}, {"measurement": "AUC(0-inf)", "setting": "[1]; 200 mg tablet, fasted, read-out: AUCinf, geometric mean (geometric CV %)", "result": 4910, "unit": "ng·h/mL"}, {"measurement": "AUC(0-t)", "setting": "[1]; 200 mg tablet, fasted, read-out: AUClast, arithmetic mean (SD)", "result": 5830, "unit": "ng·h/mL"}, {"measurement": "AUC(0-t)", "setting": "[1]; 200 mg tablet, fasted, read-out: AUClast, geometric mean (geometric CV %)", "result": 4520, "unit": "ng·h/mL"}, {"measurement": "Cmax", "setting": "[1]; 200 mg tablet, fasted, read-out: Cmax, arithmetic mean (SD)", "result": 1110, "unit": "ng/mL"}, {"measurement": "Cmax", "setting": "[1]; 200 mg tablet, fasted, read-out: Cmax, geometric mean (geometric CV %)", "result": 821, "unit": "ng/mL"}, {"measurement": "Tmax", "setting": "[1]; 200 mg tablet, fasted, read-out: Tmax, median (range)", "result": 2, "unit": "h"}, {"measurement": "half-life", "setting": "[1]; 200 mg tablet, fasted, read-out: t1/2, arithmetic mean (SD) (converted)", "result": 730, "unit": "min"}, {"measurement": "half-life", "setting": "[1]; 200 mg tablet, fasted, read-out: t1/2, geometric mean (geometric CV %) (converted)", "result": 670, "unit": "min"}, {"measurement": "AUC(0-t)", "setting": "[1]; 200 mg tablet, fed, read-out: AUC0-24, arithmetic mean (SD)", "result": 10600, "unit": "ng·h/mL"}, {"measurement": "AUC(0-t)", "setting": "[1]; 200 mg tablet, fed, read-out: AUC0-24, geometric mean (geometric CV %)", "result": 9580, "unit": "ng·h/mL"}, {"measurement": "AUC(0-inf)", "setting": "[1]; 200 mg tablet, fed, read-out: AUCinf, arithmetic mean (SD)", "result": 11300, "unit": "ng·h/mL"}, {"measurement": "AUC(0-inf)", "setting": "[1]; 200 mg tablet, fed, read-out: AUCinf, geometric mean (geometric CV %)", "result": 10100, "unit": "ng·h/mL"}, {"measurement": "AUC(0-t)", "setting": "[1]; 200 mg tablet, fed, read-out: AUClast, arithmetic mean (SD)", "result": 10800, "unit": "ng·h/mL"}, {"measurement": "AUC(0-t)", "setting": "[1]; 200 mg tablet, fed, read-out: AUClast, geometric mean (geometric CV %)", "result": 9750, "unit": "ng·h/mL"}, {"measurement": "Cmax", "setting": "[1]; 200 mg tablet, fed, read-out: Cmax, arithmetic mean (SD)", "result": 2320, "unit": "ng/mL"}, {"measurement": "Cmax", "setting": "[1]; 200 mg tablet, fed, read-out: Cmax, geometric mean (geometric CV %)", "result": 2100, "unit": "ng/mL"}, {"measurement": "Tmax", "setting": "[1]; 200 mg tablet, fed, read-out: Tmax, median (range)", "result": 2.5, "unit": "h"}, {"measurement": "half-life", "setting": "[1]; 200 mg tablet, fed, read-out: t1/2, arithmetic mean (SD) (converted)", "result": 455, "unit": "min"}, {"measurement": "half-life", "setting": "[1]; 200 mg tablet, fed, read-out: t1/2, geometric mean (geometric CV %) (converted)", "result": 419, "unit": "min"}, {"measurement": "Tmax", "setting": "[1]; 200 mg tablet, read-out: delay in Tmax with fed administration", "result": 0.5, "unit": "h"}, {"measurement": "exposure (Cmax and AUC) higher for tablet versus capsule", "setting": "[1]; single dose 200 mg, fed state", "result": "17-19%"}, {"measurement": "BCRP inhibition", "setting": "[2]", "result": "inhibits"}, {"measurement": "CYP2D6 inhibition", "setting": "[3]", "result": "inhibitor"}, {"measurement": "share of belumosudil metabolism", "setting": "[4]", "result": 21.7, "unit": "%"}, {"measurement": "dose with spermatozoa degeneration", "setting": "[5]", "result": 35, "unit": "mg/kg/day"}]}
